Source: EP0033088A2, “Antimycotic agents” (BAYER AG, priority 1980, dated 1981)

Test system: Candida
Assay: Antimicrobial in-vivo activity (oral) in mouse candidosis
Design: species or system Mäuse vom Typ SPF-DF1
Conditions: mice infected i.v. with Candida cells; 50 to 100 mg/kg oral, one hour before and seven hours after infection; compared with prior-art compounds; untreated survival about 5 % on day 6
Method: Mäuse vom Typ SPF-DF1 wurden intravenös mit 1 bis 2 x 10^6 logarytmisch wachsenden Candida-Zellen, die in physiologischer Kochsalzlösung suspendiert waren, infiziert. Eine Stunde vor und sieben Stunden nach der Infektion werden die Tiere mit jeweils 50 bis 100 mg/kg Körpergewicht der Präparate oral behandelt.
Unbehandelte Tiere starben 3 bis 6 Tage post infektionem. Die Überlebensrate am 6. Tag post infektionem betrug bei unbehandelten Kontrolltieren etwa 5 %.

Row | SMILES | in-vivo-Wirksamkeit
1 | CC(C)(C)C(O)C(C(O)C(Cl)(Cl)Cl)n1cncn1 (centres unmarked) [Beispiel 1, 1,1,1-Trichlor-3-(1,2,4-triazol-1-yl)-5,5-dimethyl-hexan-2,4-diol] | denjenigen der Verbindungen des Standes der Technik überlegen
2 | CC(C)(C)C(O)C(C(O)C(C)(C)Cl)n1cncn1 (centres unmarked) [Beispiel 4] | denjenigen der Verbindungen des Standes der Technik überlegen
3 | CC(C)(C)C(O)C(C(O)C=C(Cl)Cl)n1cncn1 (centres unmarked) [Beispiel 6] | denjenigen der Verbindungen des Standes der Technik überlegen
4 | CC(Cl)C(Cl)(Cl)C(O)C(C(O)C(C)(C)CF)n1cncn1 (centres unmarked) [Beispiel 11] | denjenigen der Verbindungen des Standes der Technik überlegen
5 | OC(c1ccc(Cl)cc1)C(C(O)C(Cl)(Cl)Cl)n1cncn1 (centres unmarked) [Beispiel 12] | denjenigen der Verbindungen des Standes der Technik überlegen
6 | OC(c1ccc(Cl)cc1Cl)C(C(O)C(Cl)(Cl)Cl)n1cncn1 (centres unmarked) [Beispiel 14] | denjenigen der Verbindungen des Standes der Technik überlegen
7 | OC(c1ccc(F)cc1)C(C(O)C(Cl)(Cl)Cl)n1cncn1 (centres unmarked) [Beispiel 15] | denjenigen der Verbindungen des Standes der Technik überlegen
8 | CC(Cl)C(Cl)(Cl)C(O)C(C(O)C(C)(C)C)n1cncn1 (centres unmarked) [Beispiel 21] | denjenigen der Verbindungen des Standes der Technik überlegen
